In US9347934B2, “Assays for identifying compounds that modulate bitter taste” (CHROMOCELL CORPORATION, priority 2011, dated 2016):

Legend:
Assay type in all cases: cell-based
TAS2R9 = molecular target: T1, TAS2R9 (Homo sapiens, UniProt Q9NYW1); test: Calcium fluorescence functional assay, TAS2R9 cell line; details: for TAS2R9 bitter taste receptor activity (changes in intracellular calcium): 20 mM tastant, cell line expressing human TAS2R9 and mouse Gα15
T1 construct: expressed in transfected cells
T1 sequence (Q9NYW1 1-312): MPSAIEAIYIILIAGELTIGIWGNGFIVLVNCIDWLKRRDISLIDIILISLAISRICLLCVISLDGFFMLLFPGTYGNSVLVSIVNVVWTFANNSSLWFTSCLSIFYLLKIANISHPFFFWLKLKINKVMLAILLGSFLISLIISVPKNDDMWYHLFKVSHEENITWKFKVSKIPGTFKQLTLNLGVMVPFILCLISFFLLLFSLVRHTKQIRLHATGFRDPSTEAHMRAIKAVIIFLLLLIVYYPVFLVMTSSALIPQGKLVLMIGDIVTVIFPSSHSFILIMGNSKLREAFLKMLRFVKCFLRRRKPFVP
Method: (§1) Accordingly, each cell line of the panel expressed a human bitter taste receptor and mouse Gα15 signaling protein.
(§2) Probenecid was not included in the load solution.
(§3) After dye loading, cell plates were placed in a fluorescent plate reader (e.g., FDSS6000 (Hamamatsu, Japan)) and receptor stimulation was measured by adding 50 ul of 3× concentrated ligand/agonist stock. Fluorescence was monitored continuously for 10 s before agonist addition and for 100-250 s after stimulation with agonist.
(§4) Receptor Activation is defined as follows: % Activation=[((Maximum signal fluorescence−Minimum signal fluorescence)−(Maximum control fluorescence−Minimum control fluorescence))/(Maximum buffer fluorescence−Minimum buffer fluorescence)]*100 Functional Response=[(Maximum signal fluorescence−Minimum signal fluorescence)−(Maximum control fluorescence−Minimum control fluorescence)] • Signal Fluorescence: refers to the change in fluorescence seen with addition of ligand • Control fluorescence: refers to the change in fluorescence seen with addition of buffer (negative control) • Calcium signals from ligand and control were normalized to the basal fluorescence of the cells prior to the stimulation.
(§5) A concentration analysis was performed and EC50 values were calculated by nonlinear regression using the formula: Y=Bottom+(Top-Bottom)/(1+10^((Log EC50-X)*Hill Slope)), X=log of dose or concentration, Y=Response (increasing as X increases), Top=maximum signal, Bottom=minimum signal.

TAS2R10 = molecular target: T2, TAS2R10 (Homo sapiens, UniProt Q9NYW0); test: Calcium fluorescence functional assay, TAS2R10 cell line; details: 20 mM tastant; cell line expressing human TAS2R10 and mouse Gα15
T2 construct: expressed in transfected cells
T2 sequence (Q9NYW0 1-307): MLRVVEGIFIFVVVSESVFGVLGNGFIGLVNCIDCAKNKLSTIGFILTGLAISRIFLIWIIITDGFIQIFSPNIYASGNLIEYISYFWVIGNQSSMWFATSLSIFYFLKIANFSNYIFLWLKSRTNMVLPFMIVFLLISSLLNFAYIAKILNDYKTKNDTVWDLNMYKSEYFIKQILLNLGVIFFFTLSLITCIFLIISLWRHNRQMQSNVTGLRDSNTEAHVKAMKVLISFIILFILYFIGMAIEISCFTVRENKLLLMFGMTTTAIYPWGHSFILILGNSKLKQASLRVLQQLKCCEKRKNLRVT
Method: as §1, §2, §3, §4, §5

TAS2R13 = molecular target: T3, TAS2R13 (Homo sapiens, UniProt Q9NYV9); test: Calcium fluorescence functional assay, TAS2R13 cell line; details: for TAS2R13 bitter taste receptor activity (changes in intracellular calcium): 20 mM tastant, cell line expressing human TAS2R13 and mouse Gα15
T3 construct: expressed in transfected cells
T3 sequence (Q9NYV9 1-303): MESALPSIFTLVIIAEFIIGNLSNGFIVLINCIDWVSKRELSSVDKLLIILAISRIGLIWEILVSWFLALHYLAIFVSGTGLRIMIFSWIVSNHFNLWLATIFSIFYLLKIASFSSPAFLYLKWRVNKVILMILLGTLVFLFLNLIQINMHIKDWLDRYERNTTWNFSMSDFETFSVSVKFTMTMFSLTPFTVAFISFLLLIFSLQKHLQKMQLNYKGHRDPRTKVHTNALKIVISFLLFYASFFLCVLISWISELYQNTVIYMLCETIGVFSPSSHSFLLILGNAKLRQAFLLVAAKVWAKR
Method: as §1, §2, §3, §4, §5

TAS2R43 = molecular target: T4, TAS2R43 (Homo sapiens, UniProt P59537); test: Calcium fluorescence functional assay, TAS2R43 cell line; details: 20 mM tastant; cell line expressing human TAS2R43 and mouse Gα15
T4 construct: expressed in transfected cells
T4 sequence (P59537 1-309): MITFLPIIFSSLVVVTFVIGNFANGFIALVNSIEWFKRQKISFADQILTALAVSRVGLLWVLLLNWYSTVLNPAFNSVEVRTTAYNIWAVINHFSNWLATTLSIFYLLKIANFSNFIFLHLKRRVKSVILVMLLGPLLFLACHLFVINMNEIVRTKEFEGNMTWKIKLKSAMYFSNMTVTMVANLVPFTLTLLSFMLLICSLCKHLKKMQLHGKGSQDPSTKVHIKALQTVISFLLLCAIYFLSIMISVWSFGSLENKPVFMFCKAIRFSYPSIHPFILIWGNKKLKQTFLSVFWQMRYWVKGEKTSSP
Method: as §1, §2, §3, §4, §5

TAS2R49 = molecular target: T5, TAS2R49 (Homo sapiens, UniProt P59543); test: Calcium fluorescence functional assay, TAS2R49 cell line; details: 20 mM tastant; cell line expressing human TAS2R49 and mouse Gα15
T5 construct: expressed in transfected cells
T5 sequence (P59543 1-309): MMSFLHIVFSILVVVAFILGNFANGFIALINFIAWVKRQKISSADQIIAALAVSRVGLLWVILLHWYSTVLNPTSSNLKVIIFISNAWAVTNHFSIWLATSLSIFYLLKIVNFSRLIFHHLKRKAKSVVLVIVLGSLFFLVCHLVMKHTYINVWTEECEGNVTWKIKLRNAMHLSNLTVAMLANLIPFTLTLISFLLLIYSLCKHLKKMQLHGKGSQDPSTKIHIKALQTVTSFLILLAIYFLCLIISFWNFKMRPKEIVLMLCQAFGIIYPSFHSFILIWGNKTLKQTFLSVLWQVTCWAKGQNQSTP
Method: as §1, §2, §3, §4, §5

TAS2R50 = molecular target: T6, TAS2R50 (Homo sapiens, UniProt P59544); test: Calcium fluorescence functional assay, TAS2R50 cell line; details: 20 mM tastant; cell line expressing human TAS2R50 and mouse Gα15
T6 construct: expressed in transfected cells
T6 sequence (P59544 1-299): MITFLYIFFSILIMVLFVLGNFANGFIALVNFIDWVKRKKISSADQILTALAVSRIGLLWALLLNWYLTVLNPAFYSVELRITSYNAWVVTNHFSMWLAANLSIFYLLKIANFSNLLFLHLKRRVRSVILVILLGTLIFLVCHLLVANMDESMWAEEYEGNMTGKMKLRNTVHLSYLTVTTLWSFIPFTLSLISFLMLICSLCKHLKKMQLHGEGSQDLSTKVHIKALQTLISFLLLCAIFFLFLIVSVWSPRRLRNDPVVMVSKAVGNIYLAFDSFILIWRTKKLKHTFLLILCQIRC
Method: as §1, §2, §3, §4, §5

Row | Compound | TAS2R9 bitter taste receptor activity (changes in intracellular calcium) (TAS2R9) | TAS2R10 bitter taste receptor activity (changes in intracellular calcium) (TAS2R10) | TAS2R13 bitter taste receptor activity (changes in intracellular calcium) (TAS2R13) | TAS2R43 bitter taste receptor activity (changes in intracellular calcium) (TAS2R43) | TAS2R49 bitter taste receptor activity (changes in intracellular calcium) (TAS2R49) | TAS2R50 bitter taste receptor activity (changes in intracellular calcium) (TAS2R50) | EC50 (TAS2R9; increasing concentrations of KCl, TAS2R9 cell line (FIG. 3), read-out: EC50 value, activation of TAS2R9) [mM] | EC50 (TAS2R13; increasing concentrations of KCl, TAS2R13 cell line (FIG. 3), read-out: EC50 value, activation of TAS2R13) [mM]
1 | CC1=CC(=O)NS(=O)(=O)O1 [Acesulfame K] | induced | did not induce | induced | did not induce | did not induce | did not induce |  | 
2 | [Cl-].[K+] [KCl, potassium chloride] | induced | did not induce | induced | did not induce | did not induce | did not induce | 5 to 15 | 5 to 15
3 | CC(O)C(=O)[O-].[K+] (centres unmarked) [Potassium lactate, potassium lactate] | induced | did not induce | induced | did not induce | did not induce | did not induce |  | 
